Usually EC50 stands for the concentration needed to bring the measured effect to its halfway point. The IC50 is the concentration needed to halve the response being measured.

T3 sequence (P28223 whole entry): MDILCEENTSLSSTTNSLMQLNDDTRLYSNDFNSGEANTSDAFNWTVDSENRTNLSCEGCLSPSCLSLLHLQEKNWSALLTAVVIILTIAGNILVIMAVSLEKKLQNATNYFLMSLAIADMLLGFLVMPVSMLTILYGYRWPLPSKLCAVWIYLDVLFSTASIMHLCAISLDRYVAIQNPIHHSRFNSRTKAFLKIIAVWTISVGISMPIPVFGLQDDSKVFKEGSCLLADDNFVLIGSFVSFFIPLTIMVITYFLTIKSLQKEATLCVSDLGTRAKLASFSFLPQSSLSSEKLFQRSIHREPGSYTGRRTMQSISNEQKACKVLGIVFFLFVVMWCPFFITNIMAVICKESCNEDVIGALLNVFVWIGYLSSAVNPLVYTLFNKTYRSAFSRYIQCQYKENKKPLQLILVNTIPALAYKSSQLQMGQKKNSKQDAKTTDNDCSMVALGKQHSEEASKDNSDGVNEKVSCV
T2 sequence (P34969 whole entry): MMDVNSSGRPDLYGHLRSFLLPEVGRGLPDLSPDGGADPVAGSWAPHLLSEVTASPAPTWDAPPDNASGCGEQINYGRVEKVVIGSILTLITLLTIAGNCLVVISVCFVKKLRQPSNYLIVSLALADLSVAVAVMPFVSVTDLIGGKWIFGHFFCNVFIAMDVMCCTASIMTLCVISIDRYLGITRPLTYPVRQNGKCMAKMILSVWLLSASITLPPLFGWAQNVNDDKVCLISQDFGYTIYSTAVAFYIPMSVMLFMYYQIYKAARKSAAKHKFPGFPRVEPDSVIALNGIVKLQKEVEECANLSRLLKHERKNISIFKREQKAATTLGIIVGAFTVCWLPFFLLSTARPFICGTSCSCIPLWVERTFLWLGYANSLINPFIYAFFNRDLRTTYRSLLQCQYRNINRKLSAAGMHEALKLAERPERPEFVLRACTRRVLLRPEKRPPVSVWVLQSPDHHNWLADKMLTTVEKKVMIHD

The first experiment has as its target T1, human TAAR1 receptors (Homo sapiens, UniProt Q96RJ0).
T1 construct: host or cells: CHO-K1
T1 sequence (Q96RJ0 1-339): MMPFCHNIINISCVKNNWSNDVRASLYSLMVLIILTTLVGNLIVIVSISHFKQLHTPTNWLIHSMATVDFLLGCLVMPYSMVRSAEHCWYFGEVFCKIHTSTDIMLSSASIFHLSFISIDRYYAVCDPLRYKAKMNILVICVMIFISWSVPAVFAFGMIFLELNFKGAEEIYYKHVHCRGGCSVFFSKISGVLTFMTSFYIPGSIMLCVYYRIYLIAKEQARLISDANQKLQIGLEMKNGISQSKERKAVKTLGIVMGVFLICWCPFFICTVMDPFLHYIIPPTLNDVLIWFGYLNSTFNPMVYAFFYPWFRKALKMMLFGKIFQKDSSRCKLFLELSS
Nature of the experiment: TAAR1 Agonism Assay: cAMP HTRF assay for Gs coupled receptor TAAR1 (Euroscreen FAST-0987C). It is filed as cell-based. Conditions: CHO-K1 cells expressing human TAAR1, cAMP HTRF. How it is done:
Dose response curves were performed in parallel with the reference compound, tyramine.
For the TAAR1 agonist test (performed in a 384 well plate): 5 μl of cells (about 3,000 cells) were mixed with 5 μl of the test compound diluted in assay buffer and then incubated for about 30 minutes at about room temperature. After addition of the lysis buffer containing cAMP-d2 and anti-cAMP cryptate detection reagents, plates were incubated for about a 1-hour incubation at about room temperature, and fluorescence ratios were measured according to the manufacturer specifications, with the HTRF (Homogeneous Time Resolved Fluorescence) kit (cAMP Gs dynamic kit, Cisbio Bioassays, 62AM4PEJ).
(§1) Compounds were tested at the following nanomolar concentrations, in duplicate: 0.3 nM, 1 nM, 3 nM, 10 nM, 30 nM, 100 nM, 300 nM, 1,000 nM, 3,000 nM, and 10,000 nM.
The molecule `NCC1Cc2ccccc2Oc2cc(F)ccc21` (single isomer, unassigned) [Compound 1, (R*)-(7-fluoro-10,11-dihydrodibenzo[b,f]oxepin-10-yl)methanamine] came in with an EC50 of 1 to 10 µM.
Same read-out and setting: under `NCC1Cc2ccccc2Oc2cc(F)ccc21` (single isomer, unassigned) [Compound 2, (S*)-(7-fluoro-10,11-dihydrodibenzo[b,f]oxepin-10-yl)methanamine] stands below 1 µM; under `CNCC1Cc2ncccc2Oc2cc(F)ccc21` (single isomer, unassigned) [Compound 33, (R*)-1-(7-fluoro-10,11-dihydrobenzo[6,7]oxepino[3,2-b]pyridin-10-yl)-N-methylmethanamine], above 10 µM; under `CNCC1Cc2ncccc2Oc2cc(F)ccc21` (single isomer, unassigned) [Compound 34, (S*)-1-(7-fluoro-10,11-dihydrobenzo[6,7]oxepino[3,2-b]pyridin-10-yl)-N-methylmethanamine], below 1 µM.
Still for that read-out and setting: to `NCC1Cc2ncccc2Oc2cc(F)ccc21` (single isomer, unassigned) [Compound 35, (R*)-(7-fluoro-10,11-dihydrobenzo[6,7]oxepino[3,2-b]pyridin-10-yl)methanamine] belongs 1 to 10 µM.
Still for that read-out and setting: to `CNCC1Cc2ncc(F)cc2Oc2ccccc21` (single isomer, unassigned) [Compound 37, (R*)-1-(3-fluoro-10,11-dihydrobenzo[6,7]oxepino[3,2-b]pyridin-10-yl)-N-methylmethanamine] belongs above 10 µM.
On to `NCC1Cc2ccc(F)cc2Oc2ccccc21` (single isomer, unassigned) [Compound 88, (R*)-(3-fluoro-10,11-dihydrodibenzo[b,f]oxepin-10-yl)methanamine], for which the EC50 is 1 to 10 µM.
`NCC1Cc2ccccc2Oc2ccc(F)cc21` (single isomer, unassigned) [Compound 93, (S*)-(8-fluoro-10,11-dihydrodibenzo[b,f]oxepin-10-yl)methanamine] showed an EC50 of 1 to 10 µM.
Molecule `NCC1Cc2cc(F)ccc2Oc2ccccc21` (single isomer, unassigned) [Compound 97, (S*)-(2-fluoro-10,11-dihydrodibenzo[b,f]oxepin-10-yl)methanamine] displayed an EC50 above 10 µM.
The molecule `CNCC1Cc2cc(F)ccc2Oc2ccccc21` (single isomer, unassigned) [Compound 99, (S*)-(2-fluoro-10,11-dihydrodibenzo[b,f]oxepin-10-yl)-N-methylmethanamine] returned a concentration giving a half-maximal response (EC50) above 10 µM.
For the molecule `CNCC1Cc2ccccc2Oc2c(F)cccc21` (single isomer, unassigned) [Compound 103, (S*)-(6-fluoro-10,11-dihydrodibenzo[b,f]oxepin-10-yl)-N-methylmethanamine], the EC50 lay within 1 to 10 µM.
Still for that read-out and setting: to `CCNCC1Cc2ccccc2Oc2cccnc21` (single isomer, unassigned) [Compound 108, (S*)-1-(10,11-dihydrobenzo[6,7]oxepino[3,2-b]pyridin-11-yl)-N-ethylmethanamine] belongs below 1 µM; to `CN(C)CC1Cc2ccccc2Oc2cccnc21` (single isomer, unassigned) [Compound 110, (S*)-1-(10,11-dihydrobenzo[6,7]oxepino[3,2-b]pyridin-11-yl)-N,N-dimethylmethanamine], above 10 µM; to `CNCC1Cc2c(F)cccc2Oc2cccnc21` (single isomer, unassigned) [Compound 139, (R*)-1-(9-fluoro-10,11-dihydrobenzo[6,7]oxepino[3,2-b]pyridin-11-yl)-N-methylmethanamine], 1 to 10 µM.
Turning to `CNCC1Cc2c(C)cccc2Oc2cccnc21` (single isomer, unassigned) [Compound 142, (S*)-(9-methyl-10,11-dihydrobenzo[6,7]oxepino[3,2-b]pyridin-11-yl)-N-methylmethanamine], the EC50 was in the range of 1 to 10 µM.
`CNCC1Cc2c(Cl)cccc2Oc2cccnc21` (single isomer, unassigned) [Compound 146, (S*)-(9-chloro-10,11-dihydrobenzo[6,7]oxepino[3,2-b]pyridin-11-yl)-N-methylmethanamine] registered an EC50 above 10 µM.
The same measure, in the same setting: under `NCC1Cc2cc(Br)ccc2Oc2cccnc21` (single isomer, unassigned) [Compound 148, (R*)-(8-bromo-10,11-dihydrobenzo[6,7]oxepino[3,2-b]pyridin-11-yl)methanamine] stands below 1 µM; under `NCC1Cc2ncccc2Oc2cccc(F)c21` (single isomer, unassigned) [Compound 155, (R*)-(9-fluoro-10,11-dihydrobenzo[6,7]oxepino[3,2-b]pyridin-10-yl)methanamine], 1 to 10 µM.
As to `CNCC1Cc2ncccc2Oc2cccc(F)c21` (single isomer, unassigned) [Compound 157, (R*)-(9-fluoro-10,11-dihydrobenzo[6,7]oxepino[3,2-b]pyridin-10-yl)-N-methylmethanamine], the EC50 was above 10 µM.
For `NCC1Cc2ncccc2Oc2ccc(Cl)cc21` (single isomer, unassigned) [Compound 168, (S*)-(8-chloro-10,11-dihydrobenzo[6,7]oxepino[3,2-b]pyridin-10-yl)methanamine], the EC50 lay in the range of 1 to 10 µM.
`CNCC1Cc2ncccc2Oc2ccc(Cl)cc21` (single isomer, unassigned) [Compound 169, (R*)-1-(8-chloro-10,11-dihydrobenzo[6,7]oxepino[3,2-b]pyridin-10-yl)-N-methylmethanamine] showed an EC50 above 10 µM.
On the same count and under the same terms, under `NCC1Cc2ncccc2Oc2c(F)cccc21` (single isomer, unassigned) [Compound 175, (R*)-(6-fluoro-10,11-dihydrobenzo[6,7]oxepino[3,2-b]pyridin-10-yl)methanamine] stands 1 to 10 µM; under `CNCC1Cc2ncccc2Oc2c(F)cccc21` (single isomer, unassigned) [Compound 177, (R*)-1-(6-fluoro-10,11-dihydrobenzo[6,7]oxepino[3,2-b]pyridin-10-yl)-N-methylmethanamine], above 10 µM.
On the same count and under the same terms, under `CNCC1Cc2ncccc2Oc2c(F)cccc21` (single isomer, unassigned) [Compound 178, (S*)-1-(6-fluoro-10,11-dihydrobenzo[6,7]oxepino[3,2-b]pyridin-10-yl)-N-methylmethanamine] stands below 1 µM.
On the same count and under the same terms, under `C[C@H]1c2ccccc2Oc2cccnc2[C@H]1CN` (stereo in doubt) [Compound 113, ((10R*,11R*)-10-methyl-10,11-dihydrobenzo[6,7]oxepino[3,2-b]pyridin-11-yl)methanamine] stands above 10 µM; under `CNC[C@@H]1c2ncccc2Oc2ccccc2[C@@H]1C` (stereo in doubt) [Compound 117, ((10R*,11R*)-10-methyl-10,11-dihydrobenzo[6,7]oxepino[3,2-b]pyridin-11-yl)-N-methylmethanamine], above 10 µM.

The next experiment has as its target T2, human 5-HT7 receptor (Homo sapiens, UniProt P34969).
T2 construct: host or cells: CHO-K1
Nature of the experiment: 5HT7 Antagonism Assay (Euroscreen FAST-0499C), cAMP HTRF. It is filed as cell-based. To be noted: CHO-K1 cells expressing human 5-HT7, reference agonist at EC80, cAMP HTRF. The protocol:
5HT7 Antagonism Assay Protocol (Euroscreen FAST-0499C)
CHO-K1 cells expressing the human 5-HT7 receptor, grown prior to the test in media without antibiotic, were detached by gentle flushing with PBS-EDTA (5 mM EDTA), recovered by centrifugation and resuspended in assay buffer (Krebs-Ringer HEPES buffer: 5 mM KCl, 1.25 mM MgSO4, 124 mM NaCl, 25 mM HEPES, 13.3 mM Glucose, 1.25 mM KH2PO4, 1.45 mM CaCl2), 0.5 g/l BSA, supplemented with 1 mM IBMX).
Dose response curves were performed in parallel with reference compounds (e.g., 5-carboxamidotryptamine (5-CT)).
For antagonist testing in a 384 well plate: 5 μl of cells (3000 cells) were mixed with 5 μl of a mix of test compound and reference agonist (for a final assay concentration corresponding to its EC80) diluted in assay buffer. The plates were then incubated for about 30 minutes at about room temperature. After addition of the lysis buffer containing cAMP-d2 and anti-cAMP cryptate detection reagents, plates were incubated for about 1 hour at about room temperature, and fluorescence ratios were measured according to the manufacturer's specifications (HTRF kit: cAMP Gs dynamic kit, Cisbio Bioassays, 62AM4PEJ).
as §1
(In general: Time-resolved FRET reads energy transfer from a long-lived donor to a nearby acceptor.)
As for `NCC1Cc2ccccc2Oc2cc(F)ccc21` (single isomer, unassigned) [Compound 1, (R*)-(7-fluoro-10,11-dihydrodibenzo[b,f]oxepin-10-yl)methanamine], the half-inhibitory concentration (IC50) was at least 10 µM.
Still for that read-out and setting: under `NCC1Cc2ccccc2Oc2cc(F)ccc21` (single isomer, unassigned) [Compound 2, (S*)-(7-fluoro-10,11-dihydrodibenzo[b,f]oxepin-10-yl)methanamine] stands at least 10 µM.

The next experiment concerns the target T3, human 5-HT2A receptor (Homo sapiens, UniProt P28223).
T3 construct: host or cells: CHO-K1
Nature of the experiment: 5HT2A Antagonism Assay (Euroscreen FAST-05051), IP-One HTRF. To be noted: 5-HT2A (IC50), CHO-K1 cells expressing human 5-HT2A, reference agonist at EC80, IP-One. It is filed as cell-based. The protocol: 5HT2A Antagonism Assay Protocol (Euroscreen FAST-05051)
CHO-K1 cells expressing the human 5-HT2A receptor grown to mid-log phase in culture media without antibiotics, were detached with PBS-EDTA, centrifuged, and resuspended in the IP-One Gq kit (Cisbio Bioassays, 62IPAPEC) stimulation buffer.
For antagonist testing in a 384 well plate: 5 μl of cells (20,000 cells) were mixed with 5 μl of a mix of test compound and reference agonist (for a final assay concentration corresponding to its EC80) diluted in stimulation buffer. The plate was incubated for 60 minutes at 37° C. in a humidified atmosphere of 95% air with 5% CO2, then 5 μL of IP1-d2 and anti-IP1 cryptate detection reagents were added to each well, the plates were incubated for about 1 hour at about room temperature. Fluorescence ratios are measured according to the manufacturer's specification (IP-One Gq kit (Cisbio Bioassays, 62IPAPEC).
Dose response curves were performed in parallel with reference compounds (e.g., α-methyl-5-HT. Compounds were tested at the following nanomolar concentrations, in duplicate: 0.3 nM, 1 nM, 3 nM, 10 nM, 30 nM, 100 nM, 300 nM, 1,000 nM, 3,000 nM, and 10,000 nM
In turn, `NCC1Cc2ccccc2Oc2cc(F)ccc21` (single isomer, unassigned) [Compound 1, (R*)-(7-fluoro-10,11-dihydrodibenzo[b,f]oxepin-10-yl)methanamine] yielded an IC50 below 1 µM.

Still in this experiment, the particulars now being: read-out: 5-HT2A (IC50), CHO-K1 cells expressing human 5-HT2A, reference agonist at EC80, IP-One.
`NCC1Cc2ccccc2Oc2cc(F)ccc21` (single isomer, unassigned) [Compound 2, (S*)-(7-fluoro-10,11-dihydrodibenzo[b,f]oxepin-10-yl)methanamine]: the IC50 was below 1 µM.

For the origin of these results see patent publication US20240245658A1, “TAAR1 AND SEROTONIN MODULATORS, AND PHARMACEUTICAL COMPOSITIONS, AND METHODS OF USE THEREOF” (Sunovion Pharmaceuticals Inc., priority 2021, published 2024).
